We go through six compounds from PMC6539903 (Molecules, 2019).

One series deals with T1, COX-1 (Homo sapiens, UniProt P23219).
T1 construct: purchased Cayman Chemical 701170
As to the kind of experiment: COX-1 inhibition assay (COX-1 ELISA kit). Format: biochemical. The settings on record: mean of four determinations; read-out: IC50 ± SD COX-1. The method, then:
(§1) 3-(4,5-Dimethylthiazol-2-yl)-2,5-diphenyltetrazolium (MTT) were purchased from Beyotime Institute of Biotechnology (Haimen, China). Annexcin V-FITC cell apoptosis assay kit (catalog No.BA11100) was purchased from BIO-BOX (Nanjing, China). Fibronectin (#F1056) and laminin (#L2020) were purchased from Sigma-Aldrich (St. Louis, MO, USA).
(§2) Then 1 M HCl was added to the reaction mixture to stop the reaction, and one-tenth of the volume of saturated stannous chloride (50 mg/mL) was added. The reaction mixture was incubated at room temperature for 5 min, and PGF2 and PGH2 were produced.
(In general: An ELISA detects its analyte on a solid surface through an enzyme-linked reagent.)

Another series concerns the target T2, COX-2 (Homo sapiens, UniProt P35354).
T2 construct: purchased Cayman Chemical 701180
T2 sequence (P35354 18-604): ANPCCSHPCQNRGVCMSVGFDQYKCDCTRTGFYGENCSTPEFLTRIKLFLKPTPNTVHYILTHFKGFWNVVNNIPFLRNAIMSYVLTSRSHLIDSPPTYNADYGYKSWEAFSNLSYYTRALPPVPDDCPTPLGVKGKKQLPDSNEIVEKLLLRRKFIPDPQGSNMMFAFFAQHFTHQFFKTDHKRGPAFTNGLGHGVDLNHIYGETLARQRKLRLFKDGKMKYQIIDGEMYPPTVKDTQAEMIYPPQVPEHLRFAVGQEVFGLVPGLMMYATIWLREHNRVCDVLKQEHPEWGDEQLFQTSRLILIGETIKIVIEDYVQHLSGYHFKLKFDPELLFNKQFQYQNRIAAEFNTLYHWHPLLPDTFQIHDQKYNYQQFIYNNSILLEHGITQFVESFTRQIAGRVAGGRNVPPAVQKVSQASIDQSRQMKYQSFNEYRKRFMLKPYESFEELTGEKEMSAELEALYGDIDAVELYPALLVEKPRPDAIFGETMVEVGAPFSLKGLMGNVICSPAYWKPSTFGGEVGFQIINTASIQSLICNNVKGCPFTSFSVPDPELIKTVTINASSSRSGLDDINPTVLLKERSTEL
The series is described as follows: COX-2 inhibition assay (COX-2 ELISA kit). The settings on record: for Selectivity Index (SI) (COX-1 IC50/COX-2 IC50): in vitro COX-2 selectivity index; for IC50: mean of four determinations, read-out: IC50 ± SD COX-2. Format: biochemical. The method, then: as §1, §2

For the next series, the system named is SW620 cells. The series is described as follows: MTT antiproliferation assay, SW620. It counts as cell-based. The settings on record: Homo sapiens, SW-620, 48 h, n = 3, read-out: IC50 ± SD SW620. As to the method:
(§3) MCF-7 (human breast cell line), HeLa (human cervical cell line), A549 (human lung cell line), HepG2 (human liver cell line), SW620 (human colorectal cell line) and a non-cancer cell line, NCM460 (Human colonic epithelial cells) were preserved at the State Key Laboratory of Pharmaceutical Biotechnology, Nanjing University (Nanjing, China).
(§4) The antiproliferative activity of the synthetic compounds against the SW620, MCF-7, HeLa, A549, HepG2, and NUM460 cell lines was evaluated by a colorimetric assay based on a modified standard (MTT). […] Thereafter, MTT (5 mg/mL in PBS) was added to each well and incubated for 4 h. 150 μL of DMSO was added to each well and shaken with a shaker. The absorbance (OD 570 nm) was read at 630 nm on an ELISA reader (ELx800, BioTek, montpelier, VT, USA). IC50 values for the compounds were calculated by comparison to DMSO treated control wells. Three replicate wells were used for each drug concentration. Each assay was performed three times.
Background: Tetrazolium assays rely on reduction of a dye to a coloured formazan, in cell work by metabolically active cells.

In another series the test system is MCF-7. As to the kind of experiment: MTT antiproliferation assay, MCF-7. It counts as cell-based. Particulars: Homo sapiens, MCF7, 48 h, n = 3, read-out: IC50 ± SD MCF-7. As to the method: as §3, §4
Another series concerns HeLa. As to the kind of experiment: MTT antiproliferation assay, HeLa. It counts as cell-based. The settings on record: Homo sapiens, 48 h, n = 3, read-out: IC50 ± SD HeLa. As to the method:
as §3, §4

The next series has as its system A549. The series is described as follows: MTT antiproliferation assay, A549. The settings on record: Homo sapiens, 48 h, n = 3, read-out: IC50 ± SD A549. Format: cell-based. As to the method:
as §3, §4

A further series deals with HepG2. The series is described as follows: MTT antiproliferation assay, HepG2. It counts as cell-based. The settings on record: Homo sapiens, 48 h, n = 3, read-out: IC50 ± SD HepG2. The method, then: as §3, §4
Series [1] in a line: MTT cytotoxicity assay, non-cancer colon cells. Particulars: human, NCM460 colonic epithelial cells (non-cancer cell line), n = 3, non-cancer cell line, read-out: CC50 ± SD NUM460. Format: cell-based. The method, then:
Besides, the MTT assay was performed on a non-cancer line NCM460 to assess the cytotoxicity of the test compound to normal colon cells.
as §3, §4

Where only a bound is given, the exact number is not on record here.

T1 sequence (P23219 24-599): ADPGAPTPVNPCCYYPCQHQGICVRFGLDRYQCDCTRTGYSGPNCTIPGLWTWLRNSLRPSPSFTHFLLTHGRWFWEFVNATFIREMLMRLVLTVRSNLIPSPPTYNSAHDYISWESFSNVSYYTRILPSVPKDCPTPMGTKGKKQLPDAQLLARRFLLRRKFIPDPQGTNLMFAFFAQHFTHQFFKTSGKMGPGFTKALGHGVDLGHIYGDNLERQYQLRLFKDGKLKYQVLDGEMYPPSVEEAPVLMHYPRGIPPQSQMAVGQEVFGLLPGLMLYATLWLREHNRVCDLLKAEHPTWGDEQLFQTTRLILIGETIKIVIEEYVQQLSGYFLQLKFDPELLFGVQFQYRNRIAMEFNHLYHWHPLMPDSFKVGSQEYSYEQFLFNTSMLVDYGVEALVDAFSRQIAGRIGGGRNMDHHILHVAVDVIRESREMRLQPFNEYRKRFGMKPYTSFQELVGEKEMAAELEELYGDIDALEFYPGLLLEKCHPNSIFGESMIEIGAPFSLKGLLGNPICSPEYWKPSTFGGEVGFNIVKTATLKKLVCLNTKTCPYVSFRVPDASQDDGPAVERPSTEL

For orientation: IC50 means the midpoint of a concentration-inhibition curve. Usually CC50 stands for the concentration at which the toxic effect on the cells reaches its halfway point. One may read the melting point as the temperature of the solid-liquid transition. `Cc1cccc(C2=NN(c3ccc(S(N)(=O)=O)cc3)C(c3ccc4c(c3)OCO4)C2)c1` (stereo not drawn) [Compound 4e, 4-(5-(Benzo[d][1,3]dioxol-5-yl)-3-(m-tolyl)-4,5-dihydro-1H-pyrazol-1-yl)benzenesulfonamide] displayed a melting point of 187 to 188 °C. Moreover, the IC50 at COX-1 worked out at 29.77 ± 0.23 µM. On COX-2, the “Selectivity Index (SI) (COX-1 IC50/COX-2 IC50)” value worked out at 19.20 and the IC50 stood at 1.55 ± 0.06 µM. Besides, in the series on SW620 cells, the IC50 amounted to 3.88 ± 0.36 µM. Moreover, the IC50 in the series on MCF-7 came to 6.52 ± 0.46 µM. For the same compound, the IC50 in the series on HeLa was found to be 7.22 ± 0.65 µM. Moreover, the concentration for half-maximal inhibition (IC50) in the series with A549 was determined as 4.54 ± 0.18 µM. In addition, in the series with HepG2, the IC50 was determined as 9.44 ± 0.74 µM. For the same compound, the CC50 at 48 h in series [1] was 110 ± 7.71 µM.
`NS(=O)(=O)c1ccc(N2N=C(c3ccc(F)cc3F)CC2c2ccc3c(c2)OCCO3)cc1` (stereo not drawn) [Compound 4z, 4-(3-(2,4-Difluorophenyl)-5-(2,3-dihydrobenzo[b][1,4]dioxin-6-yl)-4,5-dihydro-1H-pyrazol-1-yl)benzenesulfonamide]: the melting point is 168 to 169 °C. Moreover, at COX-1, the half-inhibitory concentration (IC50) was greater than 60 µM. Also, at COX-2, the “Selectivity Index (SI) (COX-1 IC50/COX-2 IC50)” value is listed as greater than 33.52 and the IC50 came out at 1.79 ± 0.13 µM. For the same compound, the IC50 in the series on SW620 cells came out at 4.48 ± 0.24 µM. In addition, in the series on MCF-7, the IC50 is 7.42 ± 0.63 µM. In addition, the IC50 in the series with HeLa turned out to be 8.34 ± 0.69 µM. The IC50 in the series with A549 is 5.78 ± 0.16 µM. For the same compound, the IC50 in the series with HepG2 came out at 11.7 ± 0.86 µM. Moreover, the CC50 at 48 h in series [1] came to 135 ± 9.63 µM.
Take `NS(=O)(=O)c1ccc(N2N=C(c3ccccc3)CC2c2ccc3c(c2)OCCO3)cc1` (stereo not drawn) [Compound 4k, 4-(5-(2,3-Dihydrobenzo[b][1,4]dioxin-6-yl)-3-phenyl-4,5-dihydro-1H-pyrazol-1-yl)benzenesulfonamide]: the melting point was 156 to 157 °C. The IC50 at COX-1 was greater than 60 µM. For the same compound, on COX-2, the “Selectivity Index (SI) (COX-1 IC50/COX-2 IC50)” value was greater than 32.97 and the IC50 worked out at 1.82 ± 0.16 µM. For the same compound, in the series with SW620 cells, the IC50 came out at 4.56 ± 0.14 µM. Besides, the IC50 with MCF-7 stood at 7.54 ± 0.42 µM. For the same compound, the IC50 with HeLa worked out at 8.44 ± 0.48 µM. In addition, the half-inhibitory concentration (IC50) with A549 was found to be 5.92 ± 0.31 µM. Further, the IC50 in the series on HepG2 amounted to 11.9 ± 0.91 µM. In [1], the CC50 at 48 h stood at 138 ± 11 µM.
On to `NS(=O)(=O)c1ccc(N2N=C(c3ccc(F)cc3)CC2c2ccc3c(c2)OCCO3)cc1` (stereo not drawn) [Compound 4o, 4-(5-(2,3-Dihydrobenzo[b][1,4]dioxin-6-yl)-3-(4-fluorophenyl)-4,5-dihydro-1H-pyrazol-1-yl)benzenesulfonamide], for which the melting point lay in the range of 195 to 196 °C. Also, the IC50 on COX-1 amounted to 38.41 ± 0.34 µM. For the same compound, at COX-2, the “Selectivity Index (SI) (COX-1 IC50/COX-2 IC50)” value came to 25.10 and the IC50 is 1.53 ± 0.12 µM. For the same compound, the 50% inhibitory concentration (IC50) in the series with SW620 cells is 3.83 ± 0.27 µM. For the same compound, in the series with MCF-7, the IC50 was found to be 6.44 ± 0.37 µM. Moreover, the IC50 in the series on HeLa is 7.12 ± 0.69 µM. For the same compound, the IC50 with A549 turned out to be 4.43 ± 0.33 µM. The IC50 in the series on HepG2 is 9.24 ± 0.74 µM. Further, the CC50 at 48 h in series [1] amounted to 107 ± 9.21 µM.
`Cc1cc(C2=NN(c3ccc(S(N)(=O)=O)cc3)C(c3ccc4c(c3)OCCO4)C2)ccc1F` (stereo not drawn) [Compound 4t, 4-(5-(2,3-Dihydrobenzo[b][1,4]dioxin-6-yl)-3-(4-fluoro-3-methylphenyl)-4,5-dihydro-1H-pyrazol-1-yl)benzenesulfonamide] came in with a melting point of 159 to 161 °C. The IC50 on COX-1 was greater than 60 µM. For the same compound, at COX-2, the “Selectivity Index (SI) (COX-1 IC50/COX-2 IC50)” value was greater than 40.54 and the concentration for half-maximal inhibition (IC50) turned out to be 1.48 ± 0.02 µM. The IC50 with SW620 cells worked out at 3.74 ± 0.12 µM. In addition, the IC50 in the series on MCF-7 turned out to be 6.31 ± 0.39 µM. Also, in the series with HeLa, the IC50 was 6.97 ± 0.51 µM. For the same compound, the IC50 in the series on A549 stood at 4.26 ± 0.19 µM. In addition, the half-maximal inhibitory concentration (IC50) with HepG2 was determined as 8.94 ± 0.67 µM. In series [1], the CC50 at 48 h is 104 ± 4.74 µM.
`NS(=O)(=O)c1ccc(N2N=C(c3cccc(Cl)c3Cl)CC2c2ccc3c(c2)OCCO3)cc1` (stereo not drawn) [Compound 4x, 4-(3-(2,3-Dichlorophenyl)-5-(2,3-dihydrobenzo[b][1,4]dioxin-6-yl)-4,5-dihydro-1H-pyrazol-1-yl)benzenesulfonamide] came in with a melting point of 171 to 173 °C.
